Here are results for nine molecules from patent US11702404B2, “GLP-1R modulating compounds” (priority 2019, dated 2023).

The EC50 is the concentration needed to bring the measured effect to its halfway point.

Series [1] in a line: Microsomal stability, human liver microsomes (predicted hepatic clearance). Conditions: predicted from in vitro microsomal stability data.
For another series, the target named is GLP-1R (Homo sapiens, UniProt P43220). The series can be described thus: GLP-1R activation: cAMP increase in CHO cells stably expressing GLP-1R. The series is classed as cell-based. As to conditions: cAMP increase, CHO cells stably expressing GLP-1R, 10 point dose response, 30 minutes incubation; read-out: EC50.
Sequence of GLP-1R (P43220 24-463): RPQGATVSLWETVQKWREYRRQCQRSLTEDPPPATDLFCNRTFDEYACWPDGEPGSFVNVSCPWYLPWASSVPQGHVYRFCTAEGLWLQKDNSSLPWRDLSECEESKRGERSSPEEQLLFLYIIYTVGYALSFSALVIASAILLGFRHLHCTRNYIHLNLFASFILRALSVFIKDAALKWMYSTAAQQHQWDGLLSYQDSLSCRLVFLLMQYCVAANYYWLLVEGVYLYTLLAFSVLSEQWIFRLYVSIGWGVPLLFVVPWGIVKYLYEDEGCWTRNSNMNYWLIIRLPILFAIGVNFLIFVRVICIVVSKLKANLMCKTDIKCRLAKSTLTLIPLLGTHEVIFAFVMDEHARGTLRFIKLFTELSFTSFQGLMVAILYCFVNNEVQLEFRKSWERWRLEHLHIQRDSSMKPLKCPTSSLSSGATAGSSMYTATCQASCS

Take `COCCn1c(Cc2ccc(-c3cccc(OCc4ccc(C(F)(F)F)cc4OC)n3)cc2F)nc2ccc(C(=O)O)cc21` [Example 459, 2-(2-fluoro-4-(6-((2-methoxy-4-(trifluoromethyl)benzyl)oxy)pyridin-2-yl)benzyl)-1-(2-methoxyethyl)-1H-benzo[d]imidazole-6-carboxylic acid]: the “Predicted Hepatic Clearance (Pred. Cl.)” value in series [1] is <1.83 mL/min/kg. In addition, on GLP-1R, the EC50 was found to be 2.35 nM.

`COCCn1c(Cc2ccc(-c3cccc(OCc4ccc(C5(F)COC5)cc4)n3)cc2F)nc2ccc(C(=O)O)cc21` [Example 460, 2-(2-fluoro-4-(6-((4-(3-fluorooxetan-3-yl)benzyl)oxy)pyridin-2-yl)benzyl)-1-(2-methoxyethyl)-1H-benzo[d]imidazole-6-carboxylic acid]: in series [1], the “Predicted Hepatic Clearance (Pred. Cl.)” value is 12.5 mL/min/kg. For the same molecule, the EC50 at GLP-1R was 15.7 nM.

Regarding `N#Cc1ccc(COc2cccc(-c3ccc(Cc4nc5ccc(C(=O)O)cc5n4CC4(n5ccnn5)CC4)cc3)n2)c(F)c1` [Example 461, 1-((1-(1H-1,2,3-triazol-1-yl)cyclopropyl)methyl)-2-(4-(6-((4-cyano-2-fluorobenzyl)oxy)pyridin-2-yl)benzyl)-1H-benzo[d]imidazole-6-carboxylic acid], the “Predicted Hepatic Clearance (Pred. Cl.)” value in series [1] is 7.17 mL/min/kg. Further, the EC50 on GLP-1R was 2.47 nM.

As for `CCn1cncc1Cn1c(Cc2ccc(-c3ccc(F)c(OCc4ccc(Cl)cc4F)c3)cc2F)nc2ccc(C(=O)O)cc21` [Example 466, 2-((3′-((4-chloro-2-fluorobenzyl)oxy)-3,4′-difluoro-[1,1′-biphenyl]-4-yl)methyl)-1-((1-ethyl-1H-imidazol-5-yl)methyl)-1H-benzo[d]imidazole-6-carboxylic acid], in series [1], the “Predicted Hepatic Clearance (Pred. Cl.)” value is 3.83 mL/min/kg. Moreover, on GLP-1R, the EC50 turned out to be 1.87 nM.

Consider `N#Cc1ccc(COc2cccc(-c3ccc(Cc4nc5c(F)cc(C(=O)O)cc5n4CC(O)CCO)c(F)c3)n2)c(F)c1` (stereo not drawn) [Example 468, 2-[[4-[6-[(4-cyano-2-fluoro-phenyl)methoxy]-2-pyridyl]-2-fluoro-phenyl]methyl]-3-(2,4-dihydroxybutyl)-7-fluoro-benzimidazole-5-carboxylic acid], for which the “Predicted Hepatic Clearance (Pred. Cl.)” value in series [1] was 2.17 mL/min/kg. In addition, the EC50 on GLP-1R amounted to 26.9 nM.

Turning to `COCCn1c(Cc2ccc(-c3cccc(OCc4cc(C(F)(F)F)ccc4OC)n3)cc2F)nc2ccc(C(=O)O)cc21` [Example 470, 2-(2-fluoro-4-(6-((2-methoxy-5-(trifluoromethyl)benzyl)oxy)pyridin-2-yl)benzyl)-1-(2-methoxyethyl)-1H-benzo[d]imidazole-6-carboxylic acid], in series [1], the “Predicted Hepatic Clearance (Pred. Cl.)” value is <1.83 mL/min/kg. In addition, on GLP-1R, the EC50 came to 1250 nM.

On to `N#Cc1ccc(COc2cccc(-c3ccc(Cc4nc5c(F)cc(C(=O)O)cc5n4C[C@@H](O)CCO)cc3F)n2)c(F)c1` [Example 471, (S)-2-(4-(6-((4-cyano-2-fluorobenzyl)oxy)pyridin-2-yl)-3-fluorobenzyl)-1-(2,4-dihydroxybutyl)-4-fluoro-1H-benzo[d]imidazole-6-carboxylic], for which, in series [1], the “Predicted Hepatic Clearance (Pred. Cl.)” value was 4 mL/min/kg. Further, the EC50 at GLP-1R came out at 13.7 nM.

Take `COCCn1c(Cc2ccc(-c3ccc(F)c(OCc4ccc(Cl)cc4F)c3)cc2F)nc2ccc(C(=O)O)cc21` [Example 472, 2-((3′-((4-chloro-2-fluorobenzyl)oxy)-3,4′-difluoro-[1,1′-biphenyl]-4-yl)methyl)-1-(2-methoxyethyl)-1H-benzo[d]imidazole-6-carboxylic acid]: the “Predicted Hepatic Clearance (Pred. Cl.)” value in series [1] is <1.83 mL/min/kg. For the same molecule, the 50% effective concentration (EC50) at GLP-1R turned out to be 20.9 nM.

In the case of `O=C(O)c1ccc2nc(Cc3ccc(-c4ccc(F)c(OCc5ccc(Cl)cc5F)c4)cc3F)n(CCO)c2c1` [Example 476, 2-[[4-[3-[(4-chloro-2-fluoro-phenyl)methoxy]-4-fluoro-phenyl]-2-fluoro-phenyl]methyl]-3-(2-hydroxyethyl)benzimidazole-5-carboxylic acid], the “Predicted Hepatic Clearance (Pred. Cl.)” value in series [1] was 2.17 mL/min/kg. Further, on GLP-1R, the concentration for a half-maximal effect (EC50) was determined as 366 nM.
